The results in this text go back to US9095564B2, “von Willebrand factor or factor VIII and von Willebrand factor for the treatment of coagulopathy induced by inhibitors of thrombocytes” (CSL Behring GmbH, priority 2008, dated 2015).

The structures appear in SMILES notation.

The test system of data set [1] is clopidogrel treated rats. Nature of the data set: Tail tip bleeding (total blood loss) in the rat clopidogrel model. It is filed as in vivo. The protocol:
The study was designed as an open seven-armed trial with 115 rats (+60 platelet donors).
3.2 mL blood were mixed with 0.8 mL trisodium citrate. Blood samples were pooled and centrifuged at 900 RPM for 30 minutes. Platelet-rich-plasma was collected into a fresh tube and centrifugated at 1800-2000 RPM for 15-17 minutes. The pellet was gently resuspended in Tyrode HEPES+0.3% BSA. Depending on platelet yield animals received 1.6−3×10^9 washed platelets intravenous into the tail vein.
Tablets were dissolved in isotonic saline and administered by gavage. On day 2 freshly prepared rat platelets were transfused into the tail vein by a bolus. Haemate® P was administered directly prior to platelet transfusion. 15 minutes after administration of platelets, blood loss was determined. The volume of total blood loss was calculated by measuring the HGB present in the saline used for submersion of the tail tip. The tail tip cut was performed with a scalpel knife under deep anesthesia, removing about 3 mm of the tail tip. Immediately upon lesion, the tail tip was submerged in saline, kept at the physiological body temperature of the rats using a water bath. The observation period to monitor bleeding was 30 min.
Blood loss was determined as the total blood loss (t=0-30 min) and analyzed by two-sided exact Wilcoxon test, box plot and Kaplan-Meier plot.

The subject of data set [2] is thrombin generation in platelet rich plasma. In words: Thrombin generation/thrombogram in platelet rich plasma, rat clopidogrel model. The data set is classed as in vivo. The conditions noted are these: clopidogrel treatment, or single agent given to clopidogrel treated rats. The protocol: When Haemate® P was administered to clopigogrel treated rats an earlier onset of thrombin formation was observed but no increase of peak thrombin.

[3] abbreviates: Group 1: Plavix/Isotonic saline, t=0-30 min.

Consider `COC(=O)[C@H](c1ccccc1Cl)N1CCc2sccc2C1` [Plavix, clopidogrel], for which, in data set [1] (setting [3]), the “Total blood loss, Maximum” value worked out at 2345 µL; the “Total blood loss, Mean” value amounted to 1404.2 µL; the “Total blood loss, Median” value was 1466 µL; the “Total blood loss, Minimum” value amounted to 265 µL. The “total blood loss (result in words)” value in data set [1] (oral treatment with clopidogrel 2.5 mg/kg day 0 and day 1) was “increased total blood loss”. Also, in data set [2], the “onset of thrombin formation” value was “later onset” and the peak thrombin entry is given as “decrease in peak thrombin”.
